Test results reported in patent US11633395B2, “Substituted pyrazolo[1,5-a]pyrazines as negative allosteric modulators of group II metabotropic glutamate receptor” (Sumitomo Pharma Co., Ltd., priority 2017, dated 2023).

Assays:
human mGlu2 receptor = human mGlu2 receptor (Homo sapiens (Human), UniProt Q14416); experiment: Assessment of mGlu2 receptor negative allosteric modulator activity in human mGlu2 receptor stable expressing cells (aequorin luminescence, EC80 glutamate); format: cell-based; details: human mGlu2 receptor stable expressing HEK cells; compound added 120 seconds before EC80 glutamate; luminescence (RLU); read-out: mGluR2 NAM IC50 (nM) or inhibition rate (%)
Sequence of human mGlu2 receptor (Q14416 19-872): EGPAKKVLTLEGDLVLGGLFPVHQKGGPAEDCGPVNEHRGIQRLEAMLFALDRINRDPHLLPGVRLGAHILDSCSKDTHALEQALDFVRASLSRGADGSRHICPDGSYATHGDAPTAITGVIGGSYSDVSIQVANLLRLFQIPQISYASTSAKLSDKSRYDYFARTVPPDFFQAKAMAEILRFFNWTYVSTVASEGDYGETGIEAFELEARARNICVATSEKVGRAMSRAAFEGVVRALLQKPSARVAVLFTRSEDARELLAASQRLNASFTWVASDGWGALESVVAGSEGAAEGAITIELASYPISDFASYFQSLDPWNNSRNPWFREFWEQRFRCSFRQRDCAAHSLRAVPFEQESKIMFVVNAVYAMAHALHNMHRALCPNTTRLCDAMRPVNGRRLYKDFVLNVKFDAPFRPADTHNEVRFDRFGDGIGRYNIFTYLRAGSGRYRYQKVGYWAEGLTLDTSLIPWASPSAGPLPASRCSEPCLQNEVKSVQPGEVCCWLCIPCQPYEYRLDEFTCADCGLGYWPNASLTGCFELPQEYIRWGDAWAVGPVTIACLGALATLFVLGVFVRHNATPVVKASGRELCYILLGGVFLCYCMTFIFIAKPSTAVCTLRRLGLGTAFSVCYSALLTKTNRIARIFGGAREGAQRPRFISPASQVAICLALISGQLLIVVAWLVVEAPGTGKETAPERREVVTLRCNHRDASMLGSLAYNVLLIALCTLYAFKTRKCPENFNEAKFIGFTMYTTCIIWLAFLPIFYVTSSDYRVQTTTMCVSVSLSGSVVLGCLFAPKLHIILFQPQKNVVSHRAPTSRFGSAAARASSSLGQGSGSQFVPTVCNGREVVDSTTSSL
Experimental: Test 1: Assessment with Human mGlu2 Receptor Stable Expressing Cells
(1) Human mGlu2 Receptor Stable Expressing Cells
Human mGlu2 receptor stable expressing cells were prepared, and used for incubation. Specifically, human mGlu2 receptor gene was inserted into pcDNA4/TO (K1020-01, Life technologies, Carlsbad, Calif., USA), and introduced into TR-expressed human kidney-derived HEK cells (cat #CCL-82.2, ATCC, USA), followed by screening with Geneticin (cat #10131-027, Life technologies, Carlsbad, Calif., USA), to obtain human mGlu2 receptor stable expressing cells.
High glucose-DMEM media (cat #11995-065, Life technologies, Carlsbad, Calif., USA) containing 10% Dialysed-FBS (cat #26400-044, Life technologies, Carlsbad, Calif., USA), 50 μg/mL Blasticidin S (cat #ANT-BL-1, Life technologies, Carlsbad, Calif., USA), and 2 mg/mL G418 (cat #16513-84, nacalai tesque, Kyoto, Japan) were used for incubation on flasks for cell culture (cat #3133-150, AGC Thechno Glass, Shizuoka, Japan). During the incubation, cells were recovered by the treatment with TrypLE Express (cat #12604-013, Life technologies, Carlsbad, Calif., USA), followed by subculture, every three to four days.
Cells were recovered by an about 80% confluency in the treatment with TrypLE Express three to four days after the subculture, transiently transfected with Ga16, apoaequorin, in media of Hanks (cat #14065-056, Life technologies, Carlsbad, Calif., USA)/20 mmol/L HEPES (cat #15630-080, Life technologies, Carlsbad, Calif., USA) Buffer (pH 7.4) containing 0.1% BSA (cat #12604-013, Life technologies, Carlsbad, Calif., USA) and 0.1 μg/mL Tetracycline (cat #33031-64, nacalai tesque, Kyoto, Japan), and then seeded on a 384-well plate (cat #781090, Greiner bio-one, Frickenhausen, Germany) in 1,500 cells/30 μL/well.
Coelentetrazine h (cat #S2011, Promega, Madison, Wis., USA) was added to the plate (10 μl/well) so as to be a final concentration of 1 μmol/L on the day after the seeding, and let stand for 4 hours or more at room temperature after centrifugation.
(2) Preparation of Test Compounds
A test compound was dissolved in DMSO so as to be a concentration 1000 times higher than the assessment concentration. This DMSO solution was diluted with a medium (Hanks, 20 mmol/L HEPES, 0.1% BSA) to a concentration 6 times higher than the assessment concentration. Glutamate was diluted with Hanks/20 mmol/L HEPES/0.1% BSA medium to a concentration 6 times higher than EC80 concentration.
(3) Assessment of mGlu2 Receptor Negative Allosteric Modulator Activity
Human mGlu2 receptor stable expressing cells were prepared and incubated. Luminescence signals by mGlu2 receptor stimulation were detected with FDSS7000 (Hamamatsu Photonics). The compound solution prepared above was added to a plate where cells and luminescent substrates were added (10 μl/well). After 120 seconds of the addition, EC80 Glutamate-containing solution was added thereto (10 μl/well), and luminescence signals were measured for 300 seconds after the addition (center wavelength: 465 nm) for calculation of RLU (Integration). mGlu2 receptor negative allosteric modulator activity of a compound was calculated by (100-100×(RLU of each compound and concentration)/(RLU of DMSO group)).
The present compound was assessed with the above biological test, and the compounds with mGlu2 receptor negative allosteric modulator activity were found out. mGlu2 receptor negative allosteric modulator activity (IC50 value (nmol/L)) for each compound is shown in the following table.

CYP3A4 = CYP3A4 (Homo sapiens (Human), UniProt P08684); experiment: Assessment of MBI and enzyme inactivation clearance against CYP3A4 (human liver microsomes, midazolam or testosterone as substrate); format: in vitro ADME; details: for microsomal CLint: probe midazolam or testosterone, CYP3A4, human liver microsomes, CLint = kinact/KI x CYP contents; for CYP3A4 MBI: shift in IC50 values due to preincubation with NADPH, human liver microsomes, MBI potential when 2-fold or more, N.D. = Not Detected
Sequence of CYP3A4 (P08684 whole entry): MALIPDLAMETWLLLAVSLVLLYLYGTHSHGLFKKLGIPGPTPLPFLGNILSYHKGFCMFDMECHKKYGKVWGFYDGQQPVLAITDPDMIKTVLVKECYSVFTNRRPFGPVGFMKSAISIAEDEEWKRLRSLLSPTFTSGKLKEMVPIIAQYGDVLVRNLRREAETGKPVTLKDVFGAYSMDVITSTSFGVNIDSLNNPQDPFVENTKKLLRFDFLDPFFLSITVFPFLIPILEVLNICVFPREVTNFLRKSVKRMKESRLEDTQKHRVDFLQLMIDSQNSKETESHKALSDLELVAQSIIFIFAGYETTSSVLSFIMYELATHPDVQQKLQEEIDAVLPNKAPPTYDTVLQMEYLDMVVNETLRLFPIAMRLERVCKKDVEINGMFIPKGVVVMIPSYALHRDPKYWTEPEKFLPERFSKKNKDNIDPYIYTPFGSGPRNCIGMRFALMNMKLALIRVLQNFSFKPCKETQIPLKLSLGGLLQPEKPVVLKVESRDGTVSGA
Description: Test 4: Assessment of MBT and Enzyme Inactivation Clearance Against CYP3A4
Cytochrome P450 (hereinafter called CYP) is the most important enzyme group associated with drug metabolism, and most of pharmacokinetic interactions are based on the inhibition of the CYP activities. CYP includes multiple molecular species. In particular, CYP3A4 is most involved in drug metabolism in oxidation reaction with CYP, and accounts for a major portion of CYPs existing in the liver.
CYP inhibition is generally divided into two types consisting of “reversible inhibition” and “irreversible inhibition (mechanism-based inhibition: MBI)”. In particular, CYP inhibition based on the MBI is known to have a possibility to cause severe side effects such as hepatotoxicity as well as drug-drug interactions (Curr Opin Drug Discov Devel. 2010 January, 13(1), 66-77, Therapeutics and Clinical Risk Management, 2005, 1(1), 3-13).
MBI and enzyme inactivation clearance against CYP3A4 were evaluated for example compounds.
Inhibition effects and inhibition types of test compounds to CYP3A4 were evaluated using human liver microsomes as an enzyme source and midazolam or testosterone as a substrate of CYP3A4. After metabolic reaction for 30 minutes at 37° C., metabolites of CYP3A4 substrate in the presence or absence of a test compound (at 4 concentrations) were measured by LC-MS/MS, and the inhibition rates were calculated from the ratios of peak area. IC50 values were calculated from plots of test compound concentrations. It was known that when a test compound has MBI potential, IC50 value is lowered by starting metabolic reactions after preincubation in the presence of NADPH (cofactor). Therefore, it was determined that there was MBI potential when the shift in IC50 values due to preincubation was 2-fold or more (Xenobiotica, 2009, 39(2), 99-112).
When MBI potential was determined, kinact (maximum inactivation rate constant) and KI (inactivator concentration yielding a measured inactivation rate at half of kinact) were calculated by the non-linear least-squares method. Enzyme inactivation clearance was calculated according to the method described in Drug Metabolism and Disposition, 2011, 39(7), 1247-1254 (CLint=kinact/KI([…])×CYP contents (pmol/mg protein)).

| SMILES | IC50 (human mGlu2 receptor) | microsomal CLint (CYP3A4) | CYP3A4 MBI (CYP3A4) |
| --- | --- | --- | --- |
| C[C@H]1CN(c2ccc(C(F)F)cc2)C(=O)c2c(-c3ccc4nccn4c3)cnn21 [Example 4, (7S)-5-[4-(difluoromethyl)phenyl]-3-(imidazo[1,2-a]pyridin-6-yl)-7-methyl-6,7-dihydropyrazolo[1,5-a]pyrazin-4(5H)-one] | 33 nM |  |  |
| C[C@H]1CN(c2ccc(C(F)(F)F)cc2)C(=O)c2c(-c3cn4ccnc4cn3)cnn21 [Example 2, (7S)-3-(imidazo[1,2-a]pyrazin-6-yl)-7-methyl-5-[4-(trifluoromethyl)phenyl]-6,7-dihydropyrazolo[1,5-a]pyrazin-4(5H)-one] | 11 nM |  |  |
| C[C@H]1CN(c2ccc(OC(F)F)cc2)C(=O)c2c(-c3ccc4nccn4c3)cnn21 [Example 9, (7S)-5-[4-(difluoromethoxy)phenyl]-3-(imidazo[1,2-a]pyridin-6-yl)-7-methyl-6,7-dihydropyrazolo[1,5-a]pyrazin-4(5H)-one] | 61 nM |  |  |
| C[C@H]1CN(c2ccc3c(c2)OC(F)(F)O3)C(=O)c2c(-c3ccc4nccn4c3)cnn21 [Example 8, (7S)-5-(2,2-difluoro-1,3-benzodioxol-5-yl)-3-(imidazo[1,2-a]pyridin-6-yl)-7-methyl-6,7-dihydropyrazolo[1,5-a]pyrazin-4(5H)-one] |  | 0.601 µL/min/mg | 2.2 |
| C[C@H]1CN(c2ccc(Cl)s2)C(=O)c2c(-c3ccc4nccn4c3)cnn21 [Example 7, (7S)-5-(5-chlorothiophen-2-yl)-3-(imidazo[1,2-a]pyridin-6-yl)-7-methyl-6,7-dihydropyrazolo[1,5-a]pyrazin-4(5H)-one] | 11 nM | 2.15 µL/min/mg | 4.5 |
| C[C@H]1CN(c2ccc(C(F)(F)F)cc2)C(=O)c2c(-c3ccc4nc(N)cn4c3)cnn21 [Example 10, (7S)-3-(2-aminoimidazo[1,2-a]pyridin-6-yl)-7-methyl-5-[4-(trifluoromethyl)phenyl]-6,7-dihydropyrazolo[1,5-a]pyrazin-4(5H)-one] | 302 nM |  |  |
| Cc1cc(N2C[C@H](C)n3ncc(-c4ccc5nccn5c4)c3C2=O)ccc1F [Example 17, (7S)-5-(4-fluoro-3-methylphenyl)-3-(imidazo[1,2-a]pyridin-6-yl)-7-methyl-6,7-dihydropyrazolo[1,5-a]pyrazin-4(5H)-one] | 17 nM | 1.94 µL/min/mg | 3.2 |
| Cc1cc(N2C[C@H](C)n3ncc(-c4ccc5ncc(F)n5c4)c3C2=O)ccc1F [Example 18, (7S)-3-(3-fluoroimidazo[1,2-a]pyridin-6-yl)-5-(4-fluoro-3-methylphenyl)-7-methyl-6,7-dihydropyrazolo[1,5-a]pyrazin-4(5H)-one] | 6.9 nM |  |  |
| C[C@H]1CN(c2ccc(C(F)(F)F)cc2)C(=O)c2c(-c3ccc4ncc(N)n4c3)cnn21 [Example 11, (7S)-3-(3-aminoimidazo[1,2-a]pyridin-6-yl)-7-methyl-5-[4-(trifluoromethyl)phenyl]-6,7-dihydropyrazolo[1,5-a]pyrazin-4(5H)-one] | 78 nM |  |  |
| CCCc1cnc2ccc(-c3cnn4c3C(=O)N(c3ccc(C(F)(F)F)cc3)C[C@@H]4C)cn12 [Example 16, (7S)-7-methyl-3-(3-propylimidazo[1,2-a]pyridin-6-yl)-5-[4-(trifluoromethyl)phenyl]-6,7-dihydropyrazolo[1,5-a]pyrazin-4(5H)-one] | 13 nM |  |  |
| C[C@H]1CN(c2ccc(C(F)(F)F)cn2)C(=O)c2c(-c3ccc4nccn4c3)cnn21 [Example 12, (7S)-3-(imidazo[1,2-a]pyridin-6-yl)-7-methyl-5-[5-(trifluoromethyl)pyridin-2-yl]-6,7-dihydropyrazolo[1,5-a]pyrazin-4(5H)-one] |  | 0.159 µL/min/mg | 2.2 |
| C[C@H]1CN(c2ccc(C(F)(F)F)cc2)C(=O)c2c(-c3ccc4nccn4c3)cnn21 [Example 1, (7S)-3-(imidazo[1,2-a]pyridin-6-yl)-7-methyl-5-[4-(trifluoromethyl)phenyl]-6,7-dihydropyrazolo[1,5-a]pyrazin-4(5H)-one] | 18 nM |  |  |
| C[C@H]1CN(c2ccc(F)c(Cl)c2)C(=O)c2c(-c3ccc4nccn4c3)cnn21 [Example 3, (7S)-5-(3-chloro-4-fluorophenyl)-3-(imidazo[1,2-a]pyridin-6-yl)-7-methyl-6,7-dihydropyrazolo[1,5-a]pyrazin-4 (5H)-one] | 23 nM |  |  |
| C[C@H]1CN(c2ccc(C(F)(F)F)cc2)C(=O)c2c(-c3ccc4ncc(F)n4c3)cnn21 [Example 13, (7S)-3-(3-fluoroimidazo[1,2-a]pyridin-6-yl)-7-methyl-5-[4-(trifluoromethyl)phenyl]-6,7-dihydropyrazolo[1,5-a]pyrazin-4(5H)-one] | 7.9 nM |  |  |
